System: MDA-MB-231
Assay: Cell fraction gold uptake by GF-AAS
Format: cell-based
Conditions: MDA-MB-231, 5 μM, 24 h
Procedure: We next performed cellular uptake studies to determine what percentage of the compounds were getting into the cell after treatment. Given that most therapeutic targets are localized receptors on the plasma membrane, quantifying the amount of gold compounds in cellular fractions and investigating their mode of uptake is crucial. For whole-cell uptake studies, MDA-MB-231 were treated with all 10 compounds and Auranofin at 5 μM for 24 h (Fig. 5A). Auranofin is the only gold-based therapeutic to be clinically approved, therefor we used this drug as a benchmark for comparison.[67] After treatment, the cells were washed with PBS, centrifuged, and digested with 0.5 mL of conc. HNO3 and diluted with DI water and subjected to ICP-OES analysis. […] Given that these complexes readily react with nucleophilic biological molecules and the lack of accumulation in the nuclear fraction, it is evident that the mechanism of action of this class of compounds is differentiated from the clinically available platinum agents. […]
and treated at a final concentration of 5 µ M and treated for 24 hours as well. The cells were then collected by trypsinization and centrifuged at 2000 rpm for 5 minutes to form a pellet. The pellet was suspended in 1 mL of DMEM, transferred to a 1.5 mL Eppendorf tube, and centrifuged again at 2000 rpm for 5 minutes. […]

SMILES: C[N+](C)=C1[S][Au-2]2([S]1)[c]1ccccc1Cc1cccc[n+]12.F[P-](F)(F)(F)(F)F (stereo not shown) [2a]
- Au content localized in the cytoplasm and total membrane fraction (pellet): > 90%

From publication PMC8162438, “Cancer cell-selective modulation of mitochondrial respiration and metabolism by potent organogold(III) dithiocarbamates” (Chemical Science, 2020)
